Results on one molecule are retold here after paper PMC5520057, “Modulation of nongenomic activation of PI3K signalling by tetramerization of N-terminally-cleaved RXRα” (Nature Communications, 2017).

The test system of one assay is RXRα-LBD/Q275E. The assay is described as follows: Non-denaturing gel electrophoresis, Q275E mutant. In kind it is biochemical, human. Conditions: K-80003 (20 μM), 3 h at 4 °C. The procedure: (§1) The human RXRα LBD (residues Thr223 to Thr462) cloned as an N-terminal histidine-tagged fusion protein in pET15b expression vector was expressed in Escherichia coli BL21 strain (Stratagene). After sonication, cell extract was incubated with the His60 Ni Superflow resin, and His-tagged RXRα-LBD-resin complexes were washed, eluted and concentrated to 5 mg ml^−1 for subsequent trails. For crystallization experiment, bovine thrombin (Sigma) was used to cleave the His tag from the purified His-tagged RXRα-LBD. The resulting His tag was removed on the Resource-Q column (GE) using 0.1–1 M NaCl gradient and the Tris-Cl pH 8 buffer. RXRα-LDB was further purified using gel filtration on a Superdex 200 2660 column (GE) pre-equilibrated with the 75 mM NaCl, 20 mM Tris-Cl buffer (pH 8).

The test system of another assay is tRXRα/R316E. In words: BS3 crosslinking, tRXRα/R316E. The note with it: MCF-7 cells, 9-cis-RA (10^−7 M) or K-80003 (5 × 10^−6 M) for 6 h. In kind it is cell-based. Here is the method: Cell lysates were then prepared and incubated with bis[sulfosuccinimidyl] suberate (BS3, Pierce) dissolved in dimethyl sulfoxide to a final concentration of 1 mM. The reactions were stopped with protein gel loading buffer. Samples were resolved by SDS/PAGE in 8% acrylamide gels and protein bands were visualized by western blotting.

In another assay the target is T1, RXRα-LBD (Homo sapiens, UniProt P19793).
T1 construct: The human RXRα LBD (residues Thr223 to Thr462); made in house; host or cells: Escherichia coli BL21
T1 sequence (P19793 223-462): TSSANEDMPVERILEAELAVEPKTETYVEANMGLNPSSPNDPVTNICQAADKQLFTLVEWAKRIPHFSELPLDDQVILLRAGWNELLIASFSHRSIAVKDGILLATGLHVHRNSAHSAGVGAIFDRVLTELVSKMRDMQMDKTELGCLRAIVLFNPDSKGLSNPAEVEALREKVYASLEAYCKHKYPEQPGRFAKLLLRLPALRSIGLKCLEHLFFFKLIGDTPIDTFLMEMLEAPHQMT
The assay is described as follows: Crystal structure of RXRα-LBD complex. In kind it is binding. Conditions: crystal structure at 2.6 Å, PDB 5TBP. Here is the method:
as §1
Crystallization conditions were initially determined using the sitting-drop vapor-diffusion method and the crystallization screens Index and PEG-Ion solutions from Hampton Research. Final crystals were obtained by cocrystallizing the protein and the ligand. The protein-ligand complex contained 0.35 mM of RXRα-LBD, 0.5–0.7 mM of a ligand, 1% DMSO, 100 mM NaCl and 20 mM Tris-Cl buffer (pH 7.6). 0.2 μl of the protein-ligand complex was mixed with 0.2 μl of the well solution (20% […] and 0.2 M Na Acetate) and incubated at 20 °C. Crystals appeared in 5–10 days and grew into 0.2 × 0.1 × 0.1 mm prisms. The crystals were flash-cooled in mother liquor containing 1.5 mM of K-80003 and 20% glycerol as a cryoprotectant. Diffraction data was collected from the cryo-cooled crystal (100 K) on an in-house diffractometer (Rigaku X-ray generator with a rotating anode, VariMax optic and R-AXIS HTC detector). Data was processed using the programme iMOSFLM, part of the CCP4 suite. The b-factor of the data set according to the Wilson plot was 60 Å^2.
The crystal structures were determined using the molecular replacement program Phaser[76] with pdb entry 4N8R as an initial model. Coot[77] and the program suite Phenix[78] were used for the model rebuilding and refinement. […]

Another assay relates to RXRα-LBD/F439A. The assay is described as follows: Non-denaturing gel electrophoresis, F439A mutant. In kind it is biochemical, human. Conditions: K-80003 (20 μM), 3 h at 4 °C. The procedure: as §1
A further assay has as its system tRXRα. In words: MCF-7/tRXRα xenograft tumours, immunostaining. In kind it is in vivo. The note with it: nude mice; K-80003 20 mg kg^−1 i.p., 12 days; anti-Myc. The procedure:
(§2) Cells mounted on glass slides or tumour tissue frozen sections (5-μm-thick) were washed with PBS and fixed in 4% paraformaldehyde (PFA) for 15 min and permeabilized with PBS containing 0.1% Triton X-100 for 15 min. Fixed cells or tumour tissues were blocked with 5 mg ml^−1 BSA in PBS for 30 min at room temperature, followed with incubation with primary antibodies for 3 h and secondary antibodies at room temperature for 1 h and co-stained with 4′6′-diamidino-2-phenylindole (DAPI) to visualize nuclei. The images were taken under an LSM-510 confocal laser scanning microscope system (Carl Zeiss).
For nude mice xenograft study, Myc-RXRα and Myc-tRXRα cloned into pcdna3.0 vector were stably transfected into MCF-7 cells, and the resulting stable clones and control clone (2 × 10^6 cells in 100 μl) were injected subcutaneously into nude mice (BALB/c, SPF grade, 16–18 g, 4–5-week old). For drug treatment, mice were intraperitoneally injected (i.p.) daily with K-80003 (20 mg kg^−1) diluted in Tween-80 or vehicle (tween-80). Body weight and tumour size were measured every 2 days. Mice were killed after 12-day drug treatment and the tumours removed for various assessments. […]

The next assay has as its system RXRα-LBD/R316E. In words: Non-denaturing gel electrophoresis, R316E mutant. Format: biochemical, human. Conditions: 9-cis-RA (0.5 μM) or K-80003 (20 μM), 3 h at 4 °C. The procedure:
as §1

Another assay concerns tRXRα/L433D. The assay is described as follows: Subcellular localization of tRXRα/L433D, immunostaining. Conditions: MCF-7 cells; K-80003 (5 × 10^−6 M) for 3 h, then TNFα (10 ng ml^−1) for 30 min. Format: cell-based. Here is the method: as §2
Another assay has as its system PyMT mammary tumour. The assay is described as follows: MMTV-PyMT transgenic mice, mammary tumour. Format: in vivo. Conditions: 4-week old MMTV-PyMT mice; diet with K-80003 (100 mg kg^−1) for 4 weeks. Here is the method: For nude mice xenograft study, Myc-RXRα and Myc-tRXRα cloned into pcdna3.0 vector were stably transfected into MCF-7 cells, and the resulting stable clones and control clone (2 × 10^6 cells in 100 μl) were injected subcutaneously into nude mice (BALB/c, SPF grade, 16–18 g, 4–5-week old). For drug treatment, mice were intraperitoneally injected (i.p.) daily with K-80003 (20 mg kg^−1) diluted in Tween-80 or vehicle (tween-80). Body weight and tumour size were measured every 2 days. Mice were killed after 12-day drug treatment and the tumours removed for various assessments. For MMTV-PyMT transgenic mouse study, 4-week old female mice of a transgenic mouse on the FVB/N genetic background expressing the PyMT oncogene under the control of MMTV LTR promoter[40] were fed with diet containing with or without K-80003 (100 mg kg^−1) for 4 weeks. Estimation of tumour appearance was performed by palpation once every day. Tumour tissues of left thoracic mammary glands were excised after the treatment. Portion of tissues was used to prepare extracts for western blotting, while the rest was fixed in 4% phosphate-buffered paraformaldehyde, and used for immunohistochemical staining using anti-Ki67 antibody and immunostaining using Δ197 anti-RXRα antibody. All experimentations and animal usage were performed and approved by the Animal Care and Use Committee of Xiamen University.

For `CC1=C(CC(=O)O)c2cc(F)ccc2/C1=C\c1ccc(C(C)C)cc1` [K-80003], in the assay with RXRα-LBD/Q275E, the “effect on tetramerization of Q275E mutant” value is recorded as “impaired the tetramerization of respective mutants by K-80003”. Besides, the “oligomeric state of tRXRα/R316E” value with tRXRα/R316E was “strong tetrameric species of tRXRα/R316E but not tRXRα/F313A independent of the presence of 9-cis-RA or K-80003”. Besides, at RXRα-LBD, the binding mode result is listed as “‘3-pronged’ binding mode” and the “molecules bound per tetramer” value is given as “six molecules of K-80003-bound per tetramer”. Also, on RXRα-LBD (A1/B2 or A2/B1 cavity), the “molecules bound per interfacial cavity” value is given as “three molecules per A1/B2 or A2/B1 interfacial cavity”. Further, the “effect on tetramerization of F439A mutant” value in the assay on RXRα-LBD/F439A was “impaired the tetramerization of respective mutants by K-80003”. The “subcellular localization of tRXRα in xenograft tumours” value in the assay with tRXRα was “a significant amount of tRXRα was found in the nucleus”. Further, in the assay on RXRα-LBD/R316E, the “effect on oligomeric state of RXRα-LBD/R316E” value is reported as “exhibited mainly as a tetramer independent of the presence of either 9-cis-RA or K-80003”. For the same molecule, the “effect on cytoplasmic colocalization of p85α with tRXRα/L433D” value in the assay on tRXRα/L433D is given as “not affected by K-80003”. The “growth of PyMT mammary tumour” value with PyMT mammary tumour is “potently inhibited the growth of PyMT mammary tumour”.
